Square brackets hold non-standard residues; d marks the D form. Peptide text beside a SMILES is read from it. * marks the point of attachment. Sta = CC(C)C[C@H](N)[C@@H](O)CC(=O)O; Isovaleryl = CC(C)CC(=O)*
Experiments:
[1] = biological target: T1, human renin (Homo sapiens, UniProt P00797); experiment: In vitro human renin inhibition (angiotensin I determined by radioimmunoassay); type: biochemical; conditions: 37° C., pH 7.4, two hours
T1 construct: purchased National Institute for Biological Standards, London
T1 sequence (P00797 67-406): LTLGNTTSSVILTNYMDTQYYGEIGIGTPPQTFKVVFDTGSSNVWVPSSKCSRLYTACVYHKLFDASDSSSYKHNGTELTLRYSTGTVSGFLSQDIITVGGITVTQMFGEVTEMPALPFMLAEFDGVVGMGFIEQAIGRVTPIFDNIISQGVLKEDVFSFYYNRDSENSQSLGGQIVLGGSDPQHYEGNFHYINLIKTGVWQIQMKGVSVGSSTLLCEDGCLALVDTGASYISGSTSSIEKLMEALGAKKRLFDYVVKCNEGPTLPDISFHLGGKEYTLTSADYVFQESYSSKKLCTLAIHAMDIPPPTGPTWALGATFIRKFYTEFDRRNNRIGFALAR
Protocol: Compounds of Formula I were evaluated as inhibitors of human renin in an in vitro assay. This human renin inhibition test has been previously described in detail Papaioannou et al., Clinical and Experimental Hypertension, A7(9), 1243-1257 (1985)]. Human renin was obtained from the National Institute for Biological Standards, London. An incubation mixture was prepared containing in a total volume of 0.25 mL 100 mM Tris-acetate buffer at pH 7.4, 25×10^-6 Goldblatt units of renin, 0.05mL of plasma from human volunteers taking oral contraceptives, 6.0 mM sodium EDTA, 2.4 mM phenylmethyl sulfonyl fluoride, 1.5 mM 8-hydroxyquinoline, 0.4 mg/mL BSA, and 0.024 mg/mL neomycin sulfate. This mixture was incubated for two hours at 37° C. in the presence or absence of renin inhibitors. The produced angiotensin I was determined by radioimmunoassay (New England Nuclear kit). Test compounds to be assayed were dissolved in DMSO and diluted with 100mM Tris-acetate buffer at pH 7.4 containing 0.5% BSA to the appropriate concentration. The final concentration of organic solvent in the reaction mixture was less than 1%. Control incubations at 37° C. were used to correct for effects of organic solvent on renin activity.

[2] = test system: cathepsin D; conditions: cited from earlier work
[3] = test system: hog renin; conditions: after injection of hog renin into nephrectomized rats; cited from earlier work
[4] = test system: renin; conditions: cited from earlier work
[5] = test system: pepsin; conditions: cited from earlier work
[6] = test system: acid proteases; conditions: cited from earlier work

Row | IC50 [1] | SMILES | inhibitor of cathepsin D [2] | reduction of blood pressure in vivo [3] | inhibitor of renin [4] | inhibitor of pepsin [5] | inhibiting acid proteases in addition to renin [6]
1 | 430 nM | CC(C)C[C@H](O)[C@H](O)[C@H](CC1CCCCC1)NC(=O)[C@H](C)CNC(=O)CCc1c[nH]c2ccccc12 [Example 22, N-[3-[[1S, 1R^* -(cyclohexylmethyl)-2S^*, 3R^* -dihydroxy-5-methylhexyl]amino]-2S^* -methyl-3-oxopropyl]-1H-indole-3-propanamide] | – | – | – | – | –
2 | – | CC(C)CC(=O)N[C@H](C(=O)N[C@H](C(=O)N[C@@H](CC(C)C)[C@@H](O)CC(=O)N[C@@H](C)C(=O)N[C@@H](CC(C)C)[C@@H](O)CC(=O)O)C(C)C)C(C)C [pepstatin] (Isovaleryl-VV[Sta]A[Sta]-OH) | inhibitor | reduce blood pressure in vivo | inhibitor | inhibitor | inhibiting acid proteases in addition to renin
